Source: PMC6362038, “Secondary structures and cell-penetrating abilities of arginine-rich peptide foldamers” (Scientific Reports, 2019)
Numbered stars: 1 amine (or outer) side, 2 acyl side, 3 side chain; on linkers, the order of the positions; unused ones are H or OH. Square brackets hold non-standard residues; d marks the D form. Peptide text beside a SMILES is read from it. * marks the point of attachment. 5FAM = O=C1OC2(c3ccc(O)cc3Oc3cc(O)ccc32)c2ccc(C(=O)*)cc21; X1 = CO[C@H]1CC(N[*:1])(C(=O)[*:2])C[C@@H]1OC; αMeL = CC(C)C[C@](C)(N)C(=O)O; Ac5c = NC1(C(=O)O)CCCC1

Key:
CHO-K1 cells = assay: Cellular uptake of CF-labeled peptides into CHO-K1 cells (flow cytometry); format: cell-based; settings: n = 3; for cellular uptake, course over incubation time: CHO-K1, 1 µM peptide, 2, 6 and 24 h, compared with peptides of only natural α-amino acids; for cellular uptake compared with Arg peptide / cellular uptake, rank among the peptides containing dAAs: CHO-K1, 1 µM peptide; for cellular uptake compared with Arg peptide: DMEM 10% FBS; for cellular uptake, rank among the peptides containing dAAs: 2-24 h
Description: (§1) Cellular uptake of peptides was assessed against HeLa (Fig. 5a) and CHO-K1 cells (Fig. 5b) at a concentration of 1 µM and various incubation times (2, 6, and 24 h). […] Not only stabilities against protease digestion but also other factors might contribute to prolongation of the cell-penetrating ability of peptides. […] The number of Arg residues in Arg-rich peptides is very important for their cell-penetrating ability, and six Arg are not enough. […] Substitution of Arg in Arg peptide with Ac5c, Ac5c^dOM, or (αMe)Leu positively affected its cell-penetrating ability compared with Aib. In comparison, among the peptides containing dAAs, (αMe)Leu peptide was the best for HeLa cell, Ac5c peptide was the best for CHO-K1 cell, and Ac5c^dOM peptide was the worst for both cell types (Fig. 5). Although the best peptides were different depending on cell type, the worst peptide was same for both cell types. […] Taken together, a stable helical structure by introducing dAAs into Arg-rich peptide enhanced their cell-penetrating abilities.
(§2) HeLa or CHO-K1 cells were seeded on 24-well culture plates (100,000 cells/well) and incubated in 400 µL of DMEM containing 10% FBS. The medium was then replaced with fresh medium, and a peptide solution was added to each well at a concentration of 1 µM. After each incubation time, the medium was removed and cells were washed with ice-cold PBS with heparin (20 units/mL) and trypsinized. After the addition of medium containing 10% FBS, fluorescence intensity was detected and acquired using an On-chip Flow (On-chip Biotechnologies Co., Ltd, Tokyo, Japan). The results are presented as a mean and standard deviation obtained from 3 samples.

[1] = Circular dichroism, R value of secondary structure; format: physicochemical; settings: CD, peptide 24 µM
Description: The conformations of peptides were analyzed by circular dichroism (CD) in pH 7.3 4-(2-hydroxyethyl)-1-piperazineethanesulfonic acid (HEPES) buffer (Fig. 3a), 40% 2,2,2-trifluoroethanol (TFE)/pH 7.3 HEPES buffer (Fig. 3b), and 75% TFE/pH 7.3 HEPES buffer (Fig. 3c). Negative maxima at 205–209 nm (π → π*) and 222–225 nm (n → π*) were diagnostic of a right-handed (P) helical structure[31]–[33]. The ratio of R (θπ → π*/θn → π*) has been used as a parameter to distinguish an α-helical structure from a 3_10-helical structure (i.e., R ≈ 1: α-helix; R < 0.4: 3_10-helix) (Table S1)[34],[35]. Helical content (helicity) of peptides was estimated from the intensity of θn → π* values. A negative maximum at 195–200 nm (π → π*) and a weak positive maximum at 217 nm (n → π*) were diagnostic of a random coil structure. […] By adding TFE to HEPES buffer, (αMe)Leu peptide formed a complete right-handed (P) helical structure in a mixture of α- and 3_10-helices (R = 0.57 and 0.56 in Figs 3b and […], respectively). The dominant structures of Ac5c and Leu peptides changed by increased the rate of TFE to eventually be α-/3_10-helices (R = 0.52) and 3_10-helix (R = 0.30), respectively (Fig. 3c). […] Cbz-[L-Leu-L-Leu-(S,S)-Ac5c^dOM]3-OMe was reported to form a right-handed (P) helical structure in 50% TFE/H2O[37]. L-Leu might contribute to stabilization of the peptide helical secondary structure as well as (S,S)-Ac5c^dOM. Destabilization of the peptide helical secondary structure by L-Arg might be stronger than stabilization of it by (S,S)-Ac5c^dOM. Taken together with the results of CD spectra (Fig. 3), in which helicity of peptides was estimated from the intensity of θn → π* values, stability in the helicity of the peptides in the current study was as follows: (αMe)Leupeptide>Ac5cpeptide≈Leupeptide>Ac5c^dOMpeptide≈Argpeptide.
Figure 3 CD spectra of peptides in (a) HEPES buffer, (b) 40% TFE/HEPES buffer, and (c) 75% TFE/HEPES buffer. Peptide concentration: 24 µM.
Optical rotation [α]^rtD was measured using a Jasco DIP-370 polarimeter (JASCO, Tokyo, Japan) using a 0.5 dm cell. Infrared (IR) spectra were recorded using a Shimadzu IR Affinity-1 spectrometer (Shimadzu Corporation, Kyoto, Japan) for conventional measurement (KBr). CD spectra were recorded using a Jasco J-720W spectropolarimeter (JASCO) with a 1.0 mm path length cell. ^1H NMR (400 MHz) and ^13C NMR (100 MHz) spectra were determined using a JEOL AL 400 spectrometer (JEOL Ltd, Tokyo, Japan). Fast atom bombardment (FAB)-MS was measured using a JEOL JMS-700N (JEOL). MALDI-TOF-MS spectra were recorded using a Bruker Ultrax spectrometer (Bruker Daltonics, Fermont, CA). Piperidine was purchased from Tokyo Chemical Industry Co., Ltd. (Tokyo, Japan). Fmoc-L-Arg(Pbf)-OH, Fmoc-Gly-OH, Fmoc-L-Leu-OH, and CLEAR-Amide resin were purchased from the Peptide Institute., Inc. (Osaka, Japan). Fmoc-(S)-(αMe)Leu-OH was obtained from Nagase & Co., Ltd. (Kyoto, Japan). Fmoc-Ac5c-OH was purchased from Watanabe Chemical Industries, Ltd. (Hiroshima, Japan). HATU, HBTU, HOAt, and HOBt were from AAPPTec (Louisville, KY). COMU was from Novabiochem (Tokyo, Japan). CF and Dulbecco’s modified Eagle’s medium (DMEM) were obtained from Sigma-Aldrich Co. (St. Louis, MO). diisopropylethylamine (DIPEA) and heparin were purchased from Wako Pure Chemicals Co., Inc. (Osaka, Japan). Diethyl ether was from Kanto Chemical Co., Inc. (Tokyo, Japan). Trifluoroacetic acid (TFA) was obtained from Nacalai Tesque, Co., Inc. (Kyoto, Japan). Hoechst 33342 and a Cell counting kit-8 were purchased from Dojindo Laboratories (Kumamoto, Japan). LysoTracker Red was from Molecular Probes (Eugene, OR).
Table S1. R values (qπ → π*/qn → π*) of synthetic peptides.
R value (qπ → π*/qn → π* )
HEPES 40% TFE/HEPES 75% TFE/HEPES

HeLa cells = assay: Cellular uptake of CF-labeled peptides into HeLa cells (flow cytometry); format: cell-based; settings: for cellular uptake, course over incubation time: 1 µM peptide, 2, 6 and 24 h, heparin wash, trypsinized, flow cytometry fluorescence, mean of n = 3; for cellular uptake, course over incubation time / cellular uptake compared with Arg peptide: DMEM 10% FBS; for cellular uptake, rank among the peptides containing dAAs / cellular uptake compared with Arg peptide: 1 µM peptide, flow cytometry, n = 3; for cellular uptake, rank among the peptides containing dAAs: 2-24 h; for cellular uptake compared with Arg peptide: 24 h
Description: as §1, §2

[2] = pH 7.3 HEPES buffer, R ≈ 1 α-helix, R < 0.4 3_10-helix

Structure (SMILES)	cellular uptake, course over incubation time (CHO-K1 cells)	cellular uptake compared with Arg peptide (CHO-K1 cells; 6 h)	cellular uptake compared with Arg peptide (CHO-K1 cells; 24 h)	R value (θπ → π*/θn → π*) ([1]; 40% TFE/pH 7.3 HEPES buffer)	R value (θπ → π*/θn → π*) ([1]; 75% TFE/pH 7.3 HEPES buffer)	R value (θπ → π*/θn → π*) [1, 2]	cellular uptake, course over incubation time (HeLa cells)	cellular uptake, rank among the peptides containing dAAs (HeLa cells)	cellular uptake compared with Arg peptide (HeLa cells)	cellular uptake, rank among the peptides containing dAAs (CHO-K1 cells)
CC(C)C[C@](C)(NC(=O)[C@H](CCCNC(=N)N)NC(=O)[C@H](CCCNC(=N)N)NC(=O)[C@](C)(CC(C)C)NC(=O)[C@H](CCCNC(=N)N)NC(=O)[C@H](CCCNC(=N)N)NC(=O)[C@](C)(CC(C)C)NC(=O)[C@H](CCCNC(=N)N)NC(=O)[C@H](CCCNC(=N)N)NC(=O)CNC(=O)c1ccc2c(c1)C(=O)OC21c2ccc(O)cc2Oc2cc(O)ccc21)C(N)=O [(αMe)Leu peptide] (5FAM-GRR[αMeL]RR[αMeL]RR[αMeL]-NH2)	prolonged cell-penetrating ability	higher than that of Arg peptide	higher than that of Arg peptide	0.57	0.56	0.45	increased cellular uptake from 2 to 6 h incubations and this was maintained after 24 h incubation	the best	higher than that of Arg peptide	
N=C(N)NCCC[C@H](NC(=O)CNC(=O)c1ccc2c(c1)C(=O)OC21c2ccc(O)cc2Oc2cc(O)ccc21)C(=O)N[C@@H](CCCNC(=N)N)C(=O)NC1(C(=O)N[C@@H](CCCNC(=N)N)C(=O)N[C@@H](CCCNC(=N)N)C(=O)NC2(C(=O)N[C@@H](CCCNC(=N)N)C(=O)N[C@@H](CCCNC(=N)N)C(=O)NC3(C(N)=O)CCCC3)CCCC2)CCCC1 [Ac5c peptide] (5FAM-GRR[Ac5c]RR[Ac5c]RR[Ac5c]-NH2)	prolonged cell-penetrating ability	higher than that of Arg peptide	higher than that of Arg peptide	0.61	0.52	No significant maxima	increased cellular uptake from 2 to 6 h incubations and this was maintained after 24 h incubation		higher than that of Arg peptide	the best
CO[C@H]1CC(NC(=O)[C@H](CCCNC(=N)N)NC(=O)[C@H](CCCNC(=N)N)NC(=O)C2(NC(=O)[C@H](CCCNC(=N)N)NC(=O)[C@H](CCCNC(=N)N)NC(=O)C3(NC(=O)[C@H](CCCNC(=N)N)NC(=O)[C@H](CCCNC(=N)N)NC(=O)CNC(=O)c4ccc5c(c4)C(=O)OC54c5ccc(O)cc5Oc5cc(O)ccc54)C[C@H](OC)[C@@H](OC)C3)C[C@H](OC)[C@@H](OC)C2)(C(N)=O)C[C@@H]1OC [Ac5c^dOM peptide] (5FAM-GRR[X1]RR[X1]RR[X1]-NH2)	prolonged cell-penetrating ability		higher than that of Arg peptide	No significant maxima	No significant maxima	No significant maxima	increased up to 24 h	the worst	higher than that of Arg peptide	the worst
